BindingDB's records for doi:10.1080/14756360801945598 (Quaid-I-Azam University, 2009)
pIC50: −log10 of the molar value.

Target: Urease (Canavalia ensiformis, UniProt P07374)
Test: Inhibition Assay
From the text: In vitro inhibition assay using jack bean urease.

Sequence of Urease (P07374 whole entry): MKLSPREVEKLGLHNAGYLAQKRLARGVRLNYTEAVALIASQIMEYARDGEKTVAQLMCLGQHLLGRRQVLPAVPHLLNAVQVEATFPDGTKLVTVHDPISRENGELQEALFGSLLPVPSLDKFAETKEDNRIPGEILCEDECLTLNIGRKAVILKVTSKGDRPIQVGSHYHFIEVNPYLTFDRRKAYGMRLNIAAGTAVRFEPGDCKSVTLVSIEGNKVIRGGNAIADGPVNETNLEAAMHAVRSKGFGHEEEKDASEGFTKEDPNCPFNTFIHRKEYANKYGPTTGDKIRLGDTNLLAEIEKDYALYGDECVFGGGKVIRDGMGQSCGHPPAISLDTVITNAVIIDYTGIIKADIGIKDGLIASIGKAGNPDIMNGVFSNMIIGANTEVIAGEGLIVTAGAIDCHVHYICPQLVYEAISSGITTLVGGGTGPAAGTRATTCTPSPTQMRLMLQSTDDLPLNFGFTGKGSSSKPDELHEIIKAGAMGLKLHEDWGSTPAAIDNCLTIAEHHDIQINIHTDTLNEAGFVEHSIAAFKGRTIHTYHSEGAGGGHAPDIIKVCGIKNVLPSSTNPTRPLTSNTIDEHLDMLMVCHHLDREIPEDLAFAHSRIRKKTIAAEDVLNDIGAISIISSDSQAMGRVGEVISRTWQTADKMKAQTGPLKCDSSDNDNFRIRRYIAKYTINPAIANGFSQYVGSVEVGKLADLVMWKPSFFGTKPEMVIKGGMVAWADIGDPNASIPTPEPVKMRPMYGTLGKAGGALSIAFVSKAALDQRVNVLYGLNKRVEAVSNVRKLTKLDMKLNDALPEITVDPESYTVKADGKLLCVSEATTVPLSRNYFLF

| Structure (SMILES) | pIC50 |
| --- | --- |
| Oc1ccccc1C1CC(c2ccccc2)Sc2ccccc2N1 [2,3,4,5-Tetrahydro-1,5-benzothiazepine analog (2S,4R), 6] | 4.04 |
| O=COc1ccc(C2CC(c3ccccc3O)=Nc3ccccc3S2)cc1OC=O (stereo unspecified) [Dihydro-1,5-benzothiazepine analog, 4] | 4.72 |
| O=[N+]([O-])c1ccc(C2CC(c3ccccc3)=Nc3ccccc3S2)cc1 (stereo unspecified) [Dihydro-1,5-benzothiazepine analog, 5] | 4.44 |
| c1ccc(C2=Nc3ccccc3SC(c3ccccc3)C2)cc1 (stereo unspecified) [Dihydro-1,5-benzothiazepine analog, 2] | 4.58 |
| Oc1ccccc1C1CC(c2ccc(F)cc2)Sc2ccccc2N1 [2,3,4,5-Tetrahydro-1,5-benzothiazepine analog (2S,4R), 7] | 4.03 |
| Cc1ccc(C2CC(c3ccccc3)=Nc3ccccc3S2)cc1 (stereo unspecified) [Dihydro-1,5-benzothiazepine analog, 3] | 4.61 |
